# Experimental data published in patent publication US8378104B2 (OSI Pharmaceuticals, LLC, priority 2010, dated 2013).
# Where a name gives a salt, the structure may show the parent alone.
# Target: T1, TAK1-TAB1 fusion protein (Homo sapiens, UniProt O43318)
# T1 construct: purchased Carna
# T1 sequence (O43318 with tags, fused parts or gaps limits assumed): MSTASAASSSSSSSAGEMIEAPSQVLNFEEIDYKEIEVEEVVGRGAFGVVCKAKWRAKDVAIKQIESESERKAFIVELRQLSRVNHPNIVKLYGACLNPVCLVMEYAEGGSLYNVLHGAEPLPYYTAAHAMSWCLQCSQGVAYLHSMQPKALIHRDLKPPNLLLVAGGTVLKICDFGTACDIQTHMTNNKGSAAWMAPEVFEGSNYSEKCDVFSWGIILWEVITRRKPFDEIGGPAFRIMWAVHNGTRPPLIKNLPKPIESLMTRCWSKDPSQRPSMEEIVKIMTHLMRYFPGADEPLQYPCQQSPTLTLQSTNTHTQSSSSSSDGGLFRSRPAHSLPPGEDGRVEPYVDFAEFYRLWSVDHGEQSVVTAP
# Assay: TAK1 biochemical assay (AlphaScreen, GST-MAP2K7 substrate)
# Settings: TAK1-TAB1 fusion protein, GST-MAP2K7 substrate; read-out: mean TAK1 IC50 (Col. A)
row,IC50 [µM],SMILES
1,0.1 to 1,"Nc1ncc(-c2cnn([C@H]3CC[C@H](O)CC3)c2)c2cc(-c3cccc4ccsc34)oc12 [Example 232, trans-4-{4-[7-amino-2-(1-benzothiophen-7-yl)furo[2,3-c]pyridin-4-yl]-1H-pyrazol-1-yl}cyclohexanol diformate salt]"
2,1 to 10,"Nc1ncc(-c2cnn([C@H]3CC[C@H](O)CC3)c2)c2cc(-c3cccc4ncccc34)oc12 [Example 235, trans-4-{4-[7-amino-2-(quinolin-5-yl)furo[2,3-c]pyridin-4-yl]-1H-pyrazol-1-yl}cyclohexanol]"
3,1 to 10,"CC(=O)N1CCC(n2cc(-c3cnc(N)c4oc(-c5csc6cn(C)c(=O)cc56)cc34)cn2)CC1 [Example 244, 3-{4-[1-(1-acetylpiperidin-4-yl)-1H-pyrazol-4-yl]-7-aminofuro[2,3-c]pyridin-2-yl}-6-methylthieno[2,3-c]pyridin-5(6H)-one trifluoroacetate]"
4,0.1 to 1,"CCOc1cc2c(-c3cc4c(-c5cnn(C6CCN(C(C)=O)CC6)c5)cnc(N)c4o3)csc2cn1 [Example 245, 1-(4-{4-[7-amino-2-(5-ethoxythieno[2,3-c]pyridin-3-yl)furo[2,3-c]pyridin-4-yl]-1H-pyrazol-1-yl}piperidin-1-yl)ethanone bis(trifluoroacetate)]"
5,1 to 10,"COc1cc2c(-c3cc4c(-c5cnn([C@H]6CC[C@H](O)CC6)c5)cnc(N)c4o3)csc2cn1 [Example 250, trans-4-{4-[7-amino-2-(5-methoxythieno[2,3-c]pyridin-3-yl)furo[2,3-c]pyridin-4-yl]-1H-pyrazol-1-yl}cyclohexanol bis(trifluoroacetate)]"
6,1 to 10,CC(=O)N1CCC(n2cc(-c3cnc(N)c4oc(-c5csc6cncc(Cl)c56)cc34)cn2)CC1 [Example 255]
7,1 to 10,"CC(=O)N1CCC(n2cc(-c3cnc(N)c4oc(-c5csc6c(=O)[nH]ccc56)cc34)cn2)CC1 [Example 257, 3-{4-[1-(1-acetylpiperidin-4-yl)-1H-pyrazol-4-yl]-7-aminofuro[2,3-c]pyridin-2-yl}thieno[2,3-c]pyridin-7(6H)-one trifluoroacetic Acid Salt]"
8,1 to 10,"CC(=O)N1CCC(n2cc(-c3cnc(N)c4oc(-c5csc6cc(=O)n(C)cc56)cc34)cn2)CC1 [Example 258, 3-{4-[1-(1-acetylpiperidin-4-yl)-1H-pyrazol-4-yl]-7-aminofuro[2,3-c]pyridin-2-yl}-5-methylthieno[3,2-c]pyridin-6(5H)-one trifluoroacetic Acid Salt]"
9,> 10,"Cn1cc2c(-c3cc4c(-c5cnn([C@H]6CC[C@H](O)CC6)c5)cnc(N)c4o3)csc2cc1=O [Example 259, 3-{7-amino-4-[1-(trans-4-hydroxycyclohexyl)-1H-pyrazol-4-yl]furo[2,3-c]pyridin-2-yl}-5-methylthieno[3,2-c]pyridin-6(5H)-one]"
10,0.1 to 1,"CC(=O)N1CCC(n2cc(-c3cnc(N)c4oc(-c5c(-c6ccccc6)sc6cnccc56)cc34)cn2)CC1 [Example 263, 1-(4-{4-[7-amino-2-(2-phenylthieno[2,3-c]pyridin-3-yl)furo[2,3-c]pyridin-4-yl]-1H-pyrazol-1-yl}piperidin-1-yl)ethanone trifluoroacetate]"
11,0.1 to 1,"CC(=O)N1CCC(n2cc(-c3cnc(N)c4oc(-c5c(C#CC(C)(C)O)sc6cnccc56)cc34)cn2)CC1 [Example 265, 1-[4-(4-{7-amino-2-[2-(3-hydroxy-3-methylbut-1-yn-1-yl)thieno[2,3-c]pyridin-3-yl]furo[2,3-c]pyridin-4-yl}-1H-pyrazol-1-yl)piperidin-1-yl]ethanone trifluoroacetate]"
12,1 to 10,"Nc1ncc(-c2cnn([C@H]3CC[C@H](O)CC3)c2)c2cc(-c3c(-c4ccccc4)sc4cnccc34)oc12 [Example 269, trans-4-{4-[7-amino-2-(2-phenylthieno[2,3-c]pyridin-3-yl)furo[2,3-c]pyridin-4-yl]-1H-pyrazol-1-yl}cyclohexanol trifluoroacetate]"
